Data from patent publication US6737383B1, “Herbicidal oxadiazolidines” (priority 1999, dated 2004).

Tests used:
rape = assay: Test B pre/postemergence rape; format: in vivo, Brassica napus
Procedure, shortened: (§1)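 Test chemicals in a non-phytotoxic solvent mixture with surfactant were sprayed preemergence onto planted seeds and postemergence onto plants 2 to 18 cm tall (1- to 4-leaf stage). After twelve to sixteen days in a greenhouse, injury was visually rated against untreated controls from 0 (no effect) to 10 (complete control).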

surinam grass = assay: Test B pre/postemergence surinam grass; format: in vivo, Brachiaria decumbens
Procedure, shortened: as §1

wheat = assay: Test B pre/postemergence wheat; format: in vivo, Triticum aestivum
Procedure, shortened: as §1

bamyardgrass = assay: Test B flood test barnyardgrass; format: in vivo, Echinochloa crus-galli
Procedure, shortened: (§2)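 Read-out is a visual response score from 0 (no effect) to 10 (complete control), assigned by comparison with untreated controls. Treatment was applied at the 2-leaf stage, and plants stayed in the greenhouse for twelve to sixteen days before scoring.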

smallflower flatsedge = assay: Test B flood test smallflower flatsedge; format: in vivo, Cyperus difformis
Procedure, shortened: as §2

rice = assay: Test B flood test rice; format: in vivo, Oryza sativa
Procedure, shortened: as §2

purple nutsedge = assay: Test B pre/postemergence purple nutsedge; format: in vivo, Cyperus rotundus
Procedure, shortened: as §1

sugar beet = assay: Test B pre/postemergence sugar beet; format: in vivo, Beta vulgaris
Procedure, shortened: as §1

blackgrass = assay: Test B pre/postemergence blackgrass; format: in vivo, Alopecurus myosuroides
Procedure, shortened: as §1

velvetleaf = assay: Test B pre/postemergence velvetleaf; format: in vivo, Abutilon theophrasti
Procedure, shortened: as §1

crabgrass = assay: Test B pre/postemergence crabgrass; format: in vivo, Digitaria sanguinalis
Procedure, shortened: as §1

corn = assay: Test B pre/postemergence corn; format: in vivo, Zea mays
Procedure, shortened: as §1

wild oat = assay: Test B pre/postemergence wild oat; format: in vivo, Avena fatua
Procedure, shortened: as §1

bedstraw = assay: Test B pre/postemergence bedstraw; format: in vivo, Galium aparine
Procedure, shortened: as §1

soybean = assay: Test B pre/postemergence soybean; format: in vivo, Glycine max
Procedure, shortened: as §1

duck salad = assay: Test B flood test duck salad; format: in vivo, Heteranthera limosa
Procedure, shortened: as §2

cocklebur = assay: Test B pre/postemergence cocklebur; format: in vivo, Xanthium strumarium
Procedure, shortened: as §1

[1] = Preemergence, Rate 62 g/ha, scale of 0 to 10 where 0 is no effect and 10 is complete control
[2] = Preemergence, Rate 250 g/ha, scale of 0 to 10 where 0 is no effect and 10 is complete control
[3] = Preemergence, Rate 500 g/ha, scale of 0 to 10 where 0 is no effect and 10 is complete control
[4] = Rate 62 g/ha, Postemergence, scale 0 to 10, 0 no effect, 10 complete control
[5] = Rate 125 g/ha, Postemergence, scale of 0 to 10 where 0 is no effect and 10 is complete control
[6] = Rate 250 g/ha, Postemergence, scale of 0 to 10 where 0 is no effect and 10 is complete control
[7] = Rate 500 g/ha, Postemergence, scale 0 to 10, 0 no effect, 10 complete control
[8] = Rate 62 g/ha, headed Pre-emergence (flood test species), scale 0 to 10 (0 no effect, 10 complete control)
[9] = Rate 125 g/ha, Pre-emergence, flood test species, scale 0 to 10 where 0 is no effect and 10 is complete control
[10] = Rate 250 g/ha, Pre-emergence, flood-test species, scale 0 to 10, 0 is no effect, 10 is complete control
[11] = Rate 500 g/ha, Pre-emergence, flood test species, scale 0 to 10 (0 no effect, 10 complete control)

Cc1ccccc1-n1c(=O)on(C(=O)N(c2ccncc2)C(C)C)c1=O [Compound 301]
0: Rape plant response rating (rape; [1]) | Rape plant response rating (0 to 10 scale) (rape; Preemergence, Rate 125 g/ha) | Rape plant response rating (rape; [2]) | Rape plant response rating (rape; [3]) | Rape plant response rating (rape; [4]) | Rape plant response rating (rape; [5]) | Plant response rating, Rape (rape; [6]) | B. signalgrass plant response rating (surinam grass; [1]) | B. signalgrass plant response rating (0 to 10 scale, 0 is no effect, 10 is complete control) (surinam grass; Preemergence, Rate 125 g/ha) | B. signalgrass plant response rating (surinam grass; [2]) | B. signalgrass plant response rating (surinam grass; [3]) | B. signalgrass plant response rating (surinam grass; [4]) | B. signalgrass plant response rating (surinam grass; [5]) | Plant response rating, B. signalgrass (surinam grass; [6]) | B. signalgrass plant response rating (surinam grass; [7]) | Wheat plant response rating (wheat; [1]) | Wheat plant response rating (0 to 10 scale) (wheat; Preemergence, Rate 125 g/ha) | Wheat plant response rating (wheat; [2]) | Wheat plant response rating (wheat; [3]) | Wheat plant response rating (wheat; [4]) | Wheat plant response rating (wheat; [5]) | Plant response rating, Wheat (wheat; [6]) | Barnyardgrass plant response rating (bamyardgrass; [8]) | Barnyardgrass plant response rating (bamyardgrass; [9]) | Barnyardgrass plant response rating (bamyardgrass; [10]) | Barnyardgrass plant response rating (bamyardgrass; [11]) | S. Flatsedge plant response rating (smallflower flatsedge; [8]) | S. Flatsedge plant response rating (smallflower flatsedge; [9]) | S. Flatsedge plant response rating (smallflower flatsedge; [10]) | S. Flatsedge plant response rating (smallflower flatsedge; [11]) | Rice plant response rating (rice; [8]) | Rice plant response rating (rice; [9]) | Rice plant response rating (rice; [10]) | Rice plant response rating (rice; [11]) | Nutsedge plant response rating (purple nutsedge; [1]) | Nutsedge plant response rating (0 to 10 scale) (purple nutsedge; Preemergence, Rate 125 g/ha) | Nutsedge plant response rating (purple nutsedge; [2]) | Nutsedge plant response rating (purple nutsedge; [3]) | Nutsedge plant response rating (purple nutsedge; [4]) | Nutsedge plant response rating (purple nutsedge; [5]) | Plant response rating, Nutsedge (purple nutsedge; [6]) | Sugarbeets plant response rating (sugar beet; [1]) | Sugarbeets plant response rating (0 to 10 scale) (sugar beet; Preemergence, Rate 125 g/ha) | Sugarbeets plant response rating (sugar beet; [2]) | Sugarbeets plant response rating (sugar beet; [3]) | Sugarbeets plant response rating (sugar beet; [4]) | Sugarbeets plant response rating (sugar beet; [5]) | Plant response rating, Sugarbeets (sugar beet; [6]) | Blackgrass plant response rating (blackgrass; [1]) | Blackgrass plant response rating (0 to 10 scale) (blackgrass; Preemergence, Rate 125 g/ha) | Blackgrass plant response rating (blackgrass; [2]) | Blackgrass plant response rating (blackgrass; [3]) | Blackgrass plant response rating (blackgrass; [4]) | Blackgrass plant response rating (blackgrass; [5]) | Plant response rating, Blackgrass (blackgrass; [6]) | Blackgrass plant response rating (blackgrass; [7]) | Velvetleaf plant response rating (velvetleaf; [1]) | Velvetleaf plant response rating (0 to 10 scale) (velvetleaf; Preemergence, Rate 125 g/ha) | Velvetleaf plant response rating (velvetleaf; [2]) | Velvetleaf plant response rating (velvetleaf; [3]) | Velvetleaf plant response rating (velvetleaf; [4]) | Velvetleaf plant response rating (velvetleaf; [5]) | Plant response rating, Velvetleaf (velvetleaf; [6]) | Crabgrass plant response rating (crabgrass; [1]) | Crabgrass plant response rating (0 to 10 scale) (crabgrass; Preemergence, Rate 125 g/ha) | Crabgrass plant response rating (crabgrass; [2]) | Crabgrass plant response rating (crabgrass; [3]) | Crabgrass plant response rating (crabgrass; [4]) | Crabgrass plant response rating (crabgrass; [5]) | Plant response rating, Crabgrass (crabgrass; [6]) | Corn plant response rating (corn; [1]) | Corn plant response rating (0 to 10 scale) (corn; Preemergence, Rate 125 g/ha) | Corn plant response rating (corn; [2]) | Corn plant response rating (corn; [3]) | Corn plant response rating (corn; [4]) | Corn plant response rating (corn; [5]) | Plant response rating, Corn (corn; [6]) | Corn plant response rating (corn; [7]) | Wild oats plant response rating (wild oat; [1]) | Wild oats plant response rating (0 to 10 scale) (wild oat; Preemergence, Rate 125 g/ha) | Wild oats plant response rating (wild oat; [2]) | Wild oats plant response rating (wild oat; [3]) | Wild oats plant response rating (wild oat; [4]) | Wild oats plant response rating (wild oat; [5]) | Plant response rating, Wild oats (wild oat; [6]) | Bedstraw plant response rating (bedstraw; [1]) | Bedstraw plant response rating (0 to 10 scale) (bedstraw; Preemergence, Rate 125 g/ha) | Bedstraw plant response rating (bedstraw; [2]) | Bedstraw plant response rating (bedstraw; [3]) | Bedstraw plant response rating (bedstraw; [4]) | Bedstraw plant response rating (bedstraw; [5]) | Soybean plant response rating (soybean; [1]) | Soybean plant response rating (0 to 10 scale) (soybean; Preemergence, Rate 125 g/ha) | Soybean plant response rating (soybean; [2]) | Soybean plant response rating (soybean; [3]) | Soybean plant response rating (soybean; [4]) | Soybean plant response rating (soybean; [5]) | Plant response rating, Soybean (soybean; [6]) | Ducksalad plant response rating (duck salad; [8]) | Ducksalad plant response rating (duck salad; [9]) | Ducksalad plant response rating (duck salad; [10]) | Ducksalad plant response rating (duck salad; [11]) | Cocklebur plant response rating (cocklebur; [1]) | Cocklebur plant response rating (0 to 10 scale) (cocklebur; Preemergence, Rate 125 g/ha) | Cocklebur plant response rating (cocklebur; [2]) | Cocklebur plant response rating (cocklebur; [4]) | Cocklebur plant response rating (cocklebur; [5]) | Plant response rating, Cocklebur (cocklebur; [6]) | Cocklebur plant response rating (cocklebur; [7])
